The supplement of paper PMC10627819

How the values were obtained:
B. subtilis 168 [1] = assay: Bliss interaction score (quartile over a dose matrix) (fitness difference); higher = more antagonism (negative = synergy)
Method in brief: (§1)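 Fitness here means normalised growth, inferred for single drugs from the combination data. Growth was OD595 at entry into stationary phase, divided by the plate's robust no-drug mean and capped at 1. The Bliss score is observed minus expected fitness, with the expectation being the product, and its quartiles span technical, biological and donor/recipient replicates.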

S. pneumoniae D39V [2] = assay: as above
Method in brief: as §1

S. aureus DSM 20231 = assay: as above
Method in brief: as §1

S. aureus Newman = assay: as above
Method in brief: as §1

S. pneumoniae D39V [3] = assay: fitness (endpoint OD595 vs no drug) (fraction); higher = more growth
Method in brief: (§2)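 Background-subtracted growth curves were the basis for fitness, taken as the optical density at entry into stationary phase over the robust mean of no-drug control wells. A cap of 1 was applied. The curves came from OD595 readings every 30 min for 14 h at 37 °C, in 384-well plates seeded at OD595 0.01 with 30 µl, or 55 µl for S. pneumoniae.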

B. subtilis 168 [4] = assay: as above
Method in brief: as §2
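For Bliss interaction score (quartile over a dose matrix) in this document: first quartile when negative (synergy) and third quartile when positive (antagonism).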

CCCCCCCCCC(=O)N[C@@H](Cc1c[nH]c2ccccc12)C(=O)N[C@H](CC(N)=O)C(=O)N[C@@H](CC(=O)O)C(=O)N[C@@H]1C(=O)NCC(=O)N[C@@H](CCCN)C(=O)N[C@@H](CC(=O)O)C(=O)N[C@H](C)C(=O)N[C@@H](CC(=O)O)C(=O)NCC(=O)N[C@H](CO)C(=O)N[C@@H]([C@H](C)CC(=O)O)C(=O)N[C@@H](CC(=O)c2ccccc2N)C(=O)O[C@@H]1C [Daptomycin] + O=C1CN(/N=C/c2ccc([N+](=O)[O-])o2)C(=O)N1 [Nitrofurantoin]
Conditions | Bliss interaction score
B. subtilis 168 [1] | -0.0871
S. aureus DSM 20231 | 0.0921
S. aureus Newman | 0.0519
S. pneumoniae D39V [2] | 0.0606

fitness, S. pneumoniae D39V [3]
Conditions | partner 1.285 µg/mL | partner 2 µg/mL | partner 2.57 µg/mL | partner 4 µg/mL | partner 8 µg/mL
first compound 1 µg/mL | 0.981 | 0.883 | 0.946 | 0.788 | 0.338
first compound 2 µg/mL | 0.943 | 0.85 | 0.904 | 0.763 | 0.327
first compound 4 µg/mL | 0.948 | 0.808 | 0.948 | 0.704 | 0.34

S. pneumoniae D39V [3], partner 5.14 µg/mL, one replicate
Conditions | fitness
first compound 1 µg/mL | 0.839
first compound 2 µg/mL | 0.82
first compound 4 µg/mL | 0.883

CN(C)C(=O)C(CCN1CCC(O)(c2ccc(Cl)cc2)CC1)(c1ccccc1)c1ccccc1 [Loperamide] + C/C(=C\C(=O)OCCCCCCCCC(=O)O)C[C@@H]1OC[C@H](C[C@@H]2O[C@H]2[C@@H](C)[C@H](C)O)[C@@H](O)[C@H]1O [Pseudomonic acid]
Conditions | Bliss interaction score
B. subtilis 168 [1] | -0.0528
S. aureus DSM 20231 | 0.0202
S. aureus Newman | 0.0342
S. pneumoniae D39V [2] | 0.121

fitness, S. pneumoniae D39V [3]
Conditions | first compound 17.14 µg/mL | first compound 20 µg/mL | first compound 34.28 µg/mL | first compound 40 µg/mL | first compound 80 µg/mL
partner 0.03 µg/mL | ≥ 1 | 0.9 | 0.99 | 0.961 | 0.845
partner 0.06 µg/mL | 0.859 | 0.726 | 0.808 | 0.766 | 0.747
partner 0.12 µg/mL | 0.686 | 0.544 | 0.632 | 0.569 | 0.509

S. pneumoniae D39V [3], first compound 68.57 µg/mL, one replicate
Conditions | fitness
partner 0.03 µg/mL | ≥ 1
partner 0.06 µg/mL | 0.996
partner 0.12 µg/mL | 0.663

CC1(C)S[C@@H]2[C@H](NC(=O)[C@H](N)c3ccc(O)cc3)C(=O)N2[C@H]1C(=O)O [Amoxicillin] + C[C@H]1COc2c(N3CCN(C)CC3)c(F)cc3c(=O)c(C(=O)O)cn1c23 [Levofloxacin]
Conditions | Bliss interaction score
B. subtilis 168 [1] | 0.0559
S. aureus DSM 20231 | 0.0396
S. aureus Newman | -0.0695
S. pneumoniae D39V [2] | 0.142

fitness, S. pneumoniae D39V [3]
Conditions | partner 0.1725 µg/mL | partner 0.2 µg/mL | partner 0.345 µg/mL | partner 0.4 µg/mL | partner 0.69 µg/mL | partner 0.8 µg/mL
first compound 0.0008 µg/mL | 0.955 | – | 0.911 | – | 0.591 | –
first compound 0.0015 µg/mL | 0.976 | 0.951 | 0.906 | 0.868 | 0.57 | 0.774
first compound 0.003 µg/mL | 0.96 | 0.866 | 0.89 | 0.893 | 0.561 | 0.775

fitness, S. pneumoniae D39V [3], one replicate
Conditions | partner 0.2 µg/mL | partner 0.4 µg/mL | partner 0.8 µg/mL
first compound 0.0008 µg/mL | 0.959 | 0.881 | 0.718
first compound 0.006 µg/mL | 0.5 | 0.509 | 0.399

C[C@H]1COc2c(N3CCN(C)CC3)c(F)cc3c(=O)c(C(=O)O)cn1c23 [Levofloxacin] + COc1cc(Cc2cnc(N)nc2N)cc(OC)c1OC [Trimethoprim]
Conditions | Bliss interaction score
B. subtilis 168 [1] | 0.0693
S. aureus DSM 20231 | -0.0537
S. aureus Newman | -0.109
S. pneumoniae D39V [2] | -0.112

B. subtilis 168 [4], one replicate
Conditions | fitness
first compound 0.001 µg/mL, partner 0.125 µg/mL | 0.528
first compound 0.001 µg/mL, partner 0.25 µg/mL | 0.41
first compound 0.001 µg/mL, partner 0.5 µg/mL | 0.456
first compound 0.002 µg/mL, partner 0.1 µg/mL | 0.907
first compound 0.002 µg/mL, partner 0.2 µg/mL | 0.804
first compound 0.002 µg/mL, partner 0.4 µg/mL | 0.572
first compound 0.0039 µg/mL, partner 0.1 µg/mL | 0.884
first compound 0.0039 µg/mL, partner 0.2 µg/mL | 0.745
first compound 0.0039 µg/mL, partner 0.4 µg/mL | 0.548
first compound 0.0078 µg/mL, partner 0.1 µg/mL | 0.872
first compound 0.0078 µg/mL, partner 0.125 µg/mL | 0.736
first compound 0.0078 µg/mL, partner 0.2 µg/mL | 0.696
first compound 0.0078 µg/mL, partner 0.4 µg/mL | 0.521
first compound 0.0312 µg/mL, partner 1 µg/mL | 0.0312
first compound 0.0312 µg/mL, partner 2 µg/mL | 0.0414
first compound 0.0625 µg/mL, partner 1 µg/mL | 0.0468
first compound 0.0625 µg/mL, partner 2 µg/mL | 0.0379
first compound 0.125 µg/mL, partner 1 µg/mL | 0.0309
first compound 0.125 µg/mL, partner 2 µg/mL | 0.0616

fitness, B. subtilis 168 [4]
Conditions | first compound 0.002 µg/mL | first compound 0.0039 µg/mL | first compound 0.0078 µg/mL | first compound 0.0312 µg/mL | first compound 0.0625 µg/mL | first compound 0.125 µg/mL
partner 0.125 µg/mL | 0.554 | 0.564 | – | – | – | –
partner 0.25 µg/mL | – | – | 0.689 | – | – | –
partner 0.5 µg/mL | 0.423 | 0.414 | 0.494 | 0.0339 | 0.0357 | 0.0365

CC1(C)S[C@@H]2[C@H](NC(=O)[C@H](N)c3ccc(O)cc3)C(=O)N2[C@H]1C(=O)O [Amoxicillin] + C[C@H]1c2cccc(O)c2C(=O)C2=C(O)[C@]3(O)C(=O)C(C(N)=O)=C(O)[C@@H](N(C)C)[C@@H]3[C@@H](O)[C@@H]21 [Doxycycline]
Conditions | Bliss interaction score
B. subtilis 168 [1] | 0.136
S. aureus DSM 20231 | -0.0671
S. aureus Newman | -0.0414
S. pneumoniae D39V [2] | 0.151

S. pneumoniae D39V [3], one replicate
Conditions | fitness
first compound 0.0008 µg/mL, partner 0.003875 µg/mL | 0.967
first compound 0.0008 µg/mL, partner 0.00775 µg/mL | 0.976
first compound 0.0015 µg/mL, partner 0.003875 µg/mL | 0.961
first compound 0.0015 µg/mL, partner 0.00775 µg/mL | 0.988
first compound 0.003 µg/mL, partner 0.003875 µg/mL | 0.944
first compound 0.003 µg/mL, partner 0.00775 µg/mL | 0.973
first compound 0.006 µg/mL, partner 0.0155 µg/mL | 0.386
first compound 0.006 µg/mL, partner 0.031 µg/mL | 0.421
first compound 0.006 µg/mL, partner 0.062 µg/mL | 0.451

fitness, S. pneumoniae D39V [3]
Conditions | first compound 0.0008 µg/mL | first compound 0.0015 µg/mL | first compound 0.003 µg/mL
partner 0.0155 µg/mL | 0.931 | 0.899 | 0.898
partner 0.031 µg/mL | 0.853 | 0.86 | 0.903
partner 0.062 µg/mL | 0.797 | 0.767 | 0.724
